Source: publication PMC8707461, “In Vitro and In Vivo Inhibition of MATE1 by Tyrosine Kinase Inhibitors” (Pharmaceutics, 2021)
Where “and” joins values, the source holds several entries; their conditions need not be identical. Equal entries are not always repeated. Where two headings read alike, the source gives them in different places.

What was measured:
MATE1 [1] = target: T1, MATE1 (Homo sapiens, UniProt Q96FL8); experiment: [14C]TEA uptake in HEK293 cells overexpressing human MATE1; conditions: for inhibition at 10 µM: human; for inhibition of MATE1-mediated uptake of TEA (in words): TKI 10 µM
T1 sequence (Q96FL8 1-570): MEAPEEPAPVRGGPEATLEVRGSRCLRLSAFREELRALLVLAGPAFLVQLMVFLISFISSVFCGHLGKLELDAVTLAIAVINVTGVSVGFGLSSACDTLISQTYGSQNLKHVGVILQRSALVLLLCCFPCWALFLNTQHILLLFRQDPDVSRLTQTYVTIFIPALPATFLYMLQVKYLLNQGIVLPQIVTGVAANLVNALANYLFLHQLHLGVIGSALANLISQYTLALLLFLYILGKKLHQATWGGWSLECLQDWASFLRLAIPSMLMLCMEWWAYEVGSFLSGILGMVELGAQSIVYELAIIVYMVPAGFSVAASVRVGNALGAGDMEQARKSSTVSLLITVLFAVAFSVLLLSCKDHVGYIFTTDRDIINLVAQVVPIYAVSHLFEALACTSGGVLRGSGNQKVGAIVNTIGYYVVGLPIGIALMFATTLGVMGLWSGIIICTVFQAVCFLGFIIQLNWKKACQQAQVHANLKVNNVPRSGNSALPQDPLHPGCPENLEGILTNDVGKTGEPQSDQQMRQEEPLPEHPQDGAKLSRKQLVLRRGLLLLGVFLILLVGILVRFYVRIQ
Procedure: (§1) Uptake experiments in HEK293 cells overexpressing mouse (m) and human (h) OCT2 or MATE1 were performed with radiolabeled tetraethylammonium (TEA) as the model substrate, using standard methods in the presence or absence of TKIs. The cell culture and uptake conditions for cells expressing mMATE1 or hMATE1 were described previously. […] Since the inhibitory potential of various xenobiotics against OCT2 and MATE1 is dependent on preincubation with perpetrator drugs, a 15-min preincubation period with the TKIs was employed unless stated otherwise. All results were normalized to uptake values in cells transfected with an empty vector or DMSO-treated groups.
(§2) MATE1-overexpressed cells were pre-incubated with transport media containing 30 mM ammonium chloride for 20 min at 37 °C following previously published protocol (pH 7.4 for hMATE1 [17, 18, 19] and pH 8.4 for mMATE1 [20, 21]) to ensure interactions can be evaluated between outward-facing MATE1 and substrate uptake before adding inhibitors. Then, preincubation media was removed and cells were incubated with transport media (NH4Cl free) containing radiolabeled compounds. […] The uptake of TEA and metformin was measured by liquid scintillation counting, as described previously. For uptake studies involving platinum drugs, cells were collected with TrypLE, and the pellets were lysed overnight in 0.2% nitric acid. After sonication, total platinum levels were determined by flameless atomic absorption spectrometry.

MATE1 [2] = conditions: cited from earlier work
human OCT2 = target: T2, human OCT2 (Homo sapiens, UniProt O15244); experiment: [14C]TEA uptake in HEK293 cells stably transfected with human OCT2; assay type: cell-based; conditions: TKI 10 µM
T2 construct: host or cells: HEK293 (Flp-In system, pcDNA5/FRT)
T2 sequence (O15244 1-555): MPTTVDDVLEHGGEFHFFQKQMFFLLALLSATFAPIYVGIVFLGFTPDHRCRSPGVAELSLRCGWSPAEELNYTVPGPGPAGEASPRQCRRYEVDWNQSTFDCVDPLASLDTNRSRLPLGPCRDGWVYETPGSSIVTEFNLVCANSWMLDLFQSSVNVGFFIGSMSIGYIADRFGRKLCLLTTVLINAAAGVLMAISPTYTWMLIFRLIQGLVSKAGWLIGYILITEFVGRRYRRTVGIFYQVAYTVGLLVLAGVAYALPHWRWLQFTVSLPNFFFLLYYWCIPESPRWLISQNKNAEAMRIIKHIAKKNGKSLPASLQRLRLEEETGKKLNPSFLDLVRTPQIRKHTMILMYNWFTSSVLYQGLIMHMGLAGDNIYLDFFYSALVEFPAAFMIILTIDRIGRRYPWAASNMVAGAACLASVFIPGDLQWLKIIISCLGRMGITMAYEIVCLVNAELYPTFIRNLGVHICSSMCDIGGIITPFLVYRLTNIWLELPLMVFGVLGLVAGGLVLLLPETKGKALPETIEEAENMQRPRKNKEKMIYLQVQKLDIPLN
Procedure: as §1, §2

mouse MATE1 = target: T3, mouse MATE1 (Mus musculus, UniProt Q8K0H1); experiment: cell-based
T3 sequence (Q8K0H1 1-567): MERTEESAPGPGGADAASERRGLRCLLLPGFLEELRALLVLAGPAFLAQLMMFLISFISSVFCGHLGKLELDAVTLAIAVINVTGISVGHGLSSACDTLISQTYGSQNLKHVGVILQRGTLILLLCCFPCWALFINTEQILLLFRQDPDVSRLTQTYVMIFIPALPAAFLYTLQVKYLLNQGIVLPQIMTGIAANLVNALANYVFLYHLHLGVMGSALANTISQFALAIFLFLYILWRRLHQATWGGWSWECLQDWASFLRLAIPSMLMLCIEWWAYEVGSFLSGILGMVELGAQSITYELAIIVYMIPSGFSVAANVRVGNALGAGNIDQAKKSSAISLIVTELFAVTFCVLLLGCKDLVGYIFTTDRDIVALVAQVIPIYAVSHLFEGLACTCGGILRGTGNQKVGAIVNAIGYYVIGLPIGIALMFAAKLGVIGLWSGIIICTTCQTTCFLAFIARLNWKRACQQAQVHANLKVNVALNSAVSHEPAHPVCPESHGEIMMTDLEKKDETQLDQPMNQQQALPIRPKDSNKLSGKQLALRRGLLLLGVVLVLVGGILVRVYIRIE
Procedure: as §1, §2

MATE1 gene = MATE1 gene expression by RT-PCR in MATE1-overexpressing cells exposed to TKIs; assay type: cell-based, human
Excerpt: RNA was extracted using the Qiagen kit from treated cells in 12-well plates or kidney tissues obtained from untreated or treated mice. Taqman primers Hs00217320_m1 and Mm00840361_m1 were obtained from Thermo Fisher Scientific (Waltham, MA, USA) and used for the hMATE1 and mMATE1 genes. The primers Hs02786624_g1 and Mm99999915_g1 were used as the house-keeping control genes for hGAPDH and mGAPDH, respectively.

[3] = HEK293 cells overexpressing human MATE1, pH 7.4, probe [14C]TEA (tetraethylammonium), 2 µM
[4] = publicly available information, ref FDA/EMA or supplement refs 1-8
[5] = Mouse IC50, HEK293 cells overexpressing mouse MATE1

SMILES | inhibition at 10 µM (MATE1 [1]; [3]) [%] | IC50 (MATE1 [2]; [4]) [µM] | other results
CN(C)C/C=C/C(=O)Nc1cc2c(Nc3ccc(F)c(Cl)c3)ncnc2cc1O[C@H]1CCOC1 [Afatinib] | 89.6 | < 10 | 
Cn1cnc2c(F)c(Nc3ccc(Br)cc3F)c(C(=O)NOCCO)cc21 [Binimetinib] | 47.6 | > 50 | 
COc1cc(Nc2c(C#N)cnc3cc(OCCCN4CCN(C)CC4)c(OC)cc23)c(Cl)cc1Cl [Bosutinib] | 99.2 | < 10 | inhibition of MATE1-mediated uptake of TEA (in words) (MATE1 [1]): potently inhibiting; influence on OCT2 function (in words) (human OCT2): potently inhibiting
COc1cc2nccc(Oc3ccc(NC(=O)C4(C(=O)Nc5ccc(F)cc5)CC4)cc3)c2cc1OC [Cabozantinib] | 95.8 | < 10 | 
C[C@@H](Oc1cc(-c2cnn(C3CCNCC3)c2)cnc1N)c1c(Cl)ccc(F)c1Cl [Crizotinib] |  | […] | inhibition at 10 µM (MATE1 [1]; pH 7.4): 96.8%
C#Cc1cccc(Nc2ncnc3cc(OCCOC)c(OCCOC)cc23)c1 [Erlotinib] |  | […] | inhibition at 10 µM (MATE1 [1]; pH 7.4): 87%
C=CC(=O)N1CCC[C@@H](n2nc(-c3ccc(Oc4ccccc4)cc3)c3c(N)ncnc32)C1 [Ibrutinib] |  |  | IC50 (MATE1 [1]): 1.03 µM; inhibition at 10 µM (MATE1 [1]; pH 7.4): 91.8%; IC50 (mouse MATE1): 51.5 µM
CS(=O)(=O)CCNCc1ccc(-c2ccc3ncnc(Nc4ccc(OCc5cccc(F)c5)c(Cl)c4)c3c2)o1 [Lapatinib] |  | > 10 | inhibition at 10 µM (MATE1 [1]; pH 7.4): 38.7%
Cc1cn(-c2cc(NC(=O)c3ccc(C)c(Nc4nccc(-c5cccnc5)n4)c3)cc(C(F)(F)F)c2)cn1 [Nilotinib] | 95.7 | […] | IC50 (mouse MATE1; [5]): 45.4 µM and 45.3 µM; expression of MATE1 (in words) (MATE1 gene): downregulated
Cc1ccc(Nc2nccc(N(C)c3ccc4c(C)n(C)nc4c3)n2)cc1S(N)(=O)=O [Pazopanib] | 90.2 | < 0.47 | 
FC(F)(F)c1ccc(CNc2ccc(Cc3c[nH]c4ncc(Cl)cc34)cn2)cn1 [Pexidartinib] | 75.6 |  | 
Cc1ccc(C(=O)Nc2ccc(CN3CCN(C)CC3)c(C(F)(F)F)c2)cc1C#Cc1cnc2cccnn12 [Ponatinib] |  | < 10 | inhibition at 10 µM (MATE1 [1]; pH 7.4): 84.9%
CO[C@]1(C(=O)N[C@@H](C)c2ccc(-n3cc(F)cn3)nc2)CC[C@H](c2nc(C)cc(Nc3cc(C)[nH]n3)n2)CC1 [Pralsetinib] | 94.5 |  | 
Cc1cn(-c2cc(NC(=O)c3ccc(C)c(Nc4nccc(-c5cnccn5)n4)c3)cc(C(F)(F)F)c2)cn1 [Radotinib] | 73 |  | 
CNC(=O)c1cc(Oc2ccc(NC(=O)Nc3ccc(Cl)c(C(F)(F)F)c3)c(F)c2)ccn1 [Regorafenib] | 72.1 | < 10 | influence on OCT2 function (in words) (human OCT2): no influence
CCn1c(=O)c(-c2cc(NC(=O)Nc3ccccc3)c(F)cc2Br)cc2cnc(NC)cc21 [Ripretinib] | 51.9 |  | 
N#CC[C@H](C1CCCC1)n1cc(-c2ncnc3[nH]ccc23)cn1 [Ruxolitinib] | 63 | < 10 | 
COc1ccc(CN2C3CC2CN(c2ccc(-c4cc(OCC(C)(C)O)cn5ncc(C#N)c45)cn2)C3)cn1 [Selpercatinib] | 97.4 | 0.66 | 
CNC(=O)c1cc(Oc2ccc(NC(=O)Nc3ccc(Cl)c(C(F)(F)F)c3)cc2)ccn1 [Sorafenib] | 83.8 |  | influence on OCT2 function (in words) (human OCT2): no influence
CCN(CC)CCNC(=O)c1c(C)[nH]c(/C=C2\C(=O)Nc3ccc(F)cc32)c1C [Sunitinib] |  |  | inhibition of MATE1-mediated uptake of TEA (in words) (MATE1 [1]): potently inhibiting; inhibition at 10 µM (MATE1 [1]; pH 7.4): 98%; influence on OCT2 function (in words) (human OCT2): potently inhibiting; IC50 (MATE1 [2]): […]
COc1cc2nccc(Oc3ccc(NC(=O)Nc4cc(C)on4)c(Cl)c3)c2cc1OC [Tivozanib] | 90.3 |  | 
C[C@@H]1CCN(C(=O)CC#N)C[C@@H]1N(C)c1ncnc2[nH]ccc12 [Tofacitinib] | 90.4 | ~10 | 
CC(=O)Nc1cccc(-n2c(=O)n(C3CC3)c(=O)c3c(Nc4ccc(I)cc4F)n(C)c(=O)c(C)c32)c1 [Trametinib] | 96.1 | 0.06 | 
Cc1cc(Nc2ncnc3ccc(NC4=NC(C)(C)CO4)cc23)ccc1Oc1ccn2ncnc2c1 [Tucatinib] | 96.3 |  | 
CC[C@@H]1CN(C(=O)NCC(F)(F)F)C[C@@H]1c1cnc2cnc3[nH]ccc3n12 [Upadacitinib] | 77.2 |  | 
COc1cc2c(Nc3ccc(Br)cc3F)ncnc2cc1OCC1CCN(C)CC1 [Vandetanib] | 99.5 | < 10 | 
CCCS(=O)(=O)Nc1ccc(F)c(C(=O)c2c[nH]c3ncc(-c4ccc(Cl)cc4)cc23)c1F [Vemurafenib] | 34.1 |  | 
C=CC(=O)N1CCC([C@@H]2CCNc3c(C(N)=O)c(-c4ccc(Oc5ccccc5)cc4)nn32)CC1 [Zanubrutinib] | 94.5 |  | 
CN/C(=N/CCSCc1nc[nH]c1C)NC#N [cimetidine] |  |  | IC50 (mouse MATE1; [5]): > 50 µM
